# Measured values: patent US4581359A, “Pharmacological treatments with N-7-substituted derivatives of theophylline” (priority 1984, dated 1986)
# Values joined by “and” are separate entries in the source; they are usually repeats but may differ in a detail not shown here. Equal entries are not always repeated. Where two headings read alike, the source gives them in different places.
# Key:
# [1] = cited from earlier work
# [2] = Concomitant dyphylline and aminophylline in two horses: plasma concentration, blood pressure, pulse (Example 3); conditions: horse, plasma, iv, 20 mg/kg, dyphylline peak plasma concentration, 20 mg/kg bolus
# Experimental: Two horses were administered dyphylline and aminophylline concomitantly.
# The second horse was given a bolus injection of dyphylline (20 mg/kg as 100 mg/ml solution in D5W) over 15 seconds into the jugular vein. Aminophylline infusion (10 mg/kg dissolved in one liter of D5W) was started immediately and administered over 20 minutes.
# [3] = cited from earlier work; remark: listed apart in the source
# [4] = clinical; assay type: in vivo; conditions: for Cmax: iv, 1000 mg, after 20-minute intravenous infusion of 1000 mg
# Experimental: To confirm the data shown in Table XI, dyphylline, 1000 mg, was administered to twelve healthy male volunteers as a zero-order infusion (50 mg/min) or as three conventional tablets (2×400 mg, 1×200 mg).
# [5] = Single and combined intravenous methyl xanthines in rabbits: heart rate, deaths, plasma concentrations (Example 6); assay type: in vivo, female rabbits; conditions: one rabbit each; normal about 220 bpm
# Experimental: T 40 mg/kg of aminophylline infused at the rate of 0.21 ml/min over 30
# T/D 40 mg/kg of aminophylline infused at the rate of 0.21 ml/min over 30
# T/E 40 mg/kg of aminophylline infused at the rate of 0.21 ml/min over 30
# T/P 40 mg/kg of aminophylline infused at the rate of 0.21 ml/min over 30
# [6] = cited from earlier work; remark: listed apart in the source
# [7] = Literature: pharmacokinetics of dyphylline and related derivatives in humans; conditions: human, in vivo, from Simons et al., read-out: Total Vd
# From the text: Simons, et al., Allergy and Clin. Immunol. (1975) report the pharmacokinetics of dyphylline from seven different doses in seven patients and treat dyphylline as a one-compartment drug which means that Vc would be equal to Vd total since only one compartment is involved. This is, however, inconsistent with the data reported in the above-mentioned articles by Lawyer et al. Also, the data of Simons et al. (1975) can be used to generate the following lists wherein the estimated total volume of distribution of dyphylline (total Vd) is calculated from data presented by using the equation Vd=Dose/(Kel)(AUC): […]
# [8] = in vivo
# Experimental: One horse was administered acetyl promazine thiamyol sodium, quaifensin, and halothane to produce general anesthesia. Dyphylline (20 mg/kg) was given as an intravenous bolus injection in less than 15 seconds and aminophylline (10 mg/kg) was given as an infusion over about 20 minutes. Plasma and cerebral spinal fluid were collected and assayed by high pressure liquid chromatography for both dyphylline and theophylline.
# [9] = Dyphylline 20 min intravenous infusion in two healthy male subjects: pharmacokinetics, blood pressure, pulse (Example 2); assay type: in vivo, human; conditions: bolus injection
# [10] = as above; assay type: in vivo, human; conditions: for V2, volume of peripheral compartment: Vd - V1; for Css, steady state: infusion rate/V1 Ke1, predicted only; for half-life / k el / Vd: human, in vivo, iv, 1000 mg; for half-life: 0.693/β
# Experimental: 1000 mg of the drug dyphylline was infused over twenty minutes in two heathy male patients to determine the volume of distribution of the central compartment.
# A physician evaluated two male volunteer subjects for their drug and disease histories. […] The subjects fasted from 10:00 p.m. before dosing at 7:30 a.m. the following day until four hours post dosing, after which food (except xanthines; i.e. chocolate, tea, coffee) and beverages were allowed ad lib.
# A dose of 1,000 mg of dyphylline (Neothylline®) diluted in normal saline (0.9 percent) was administered at a rate of 50 mg/min via a constant infusion pump for twenty minutes. Blood pressure and electrocardiogram readings were monitored by a physician.
# Whole blood (7 cc) was collected from each subject at time zero just prior to dosing and at 10, 15, 20, 30, 40 minutes and 1.0, 1.5, 2.0, 3.0, 4.0, 5.0, 6.0, 7.0, 8.0, 12.0, and 16.0 hours post dosing with a syringe. The heparin lock was cleared of all heparin solution and the lock filled with subject blood by using a disposable syringe prior to sampling. Each sample was then collected in a new disposable syringe and immediately transferred to a heparinized vacuum tube. After each sampling, the heparin lock was flushed and filled with heparin (10 u/ml). Once samples had been transferred to vacuum tubes, they were inverted several times, then stored in crushed ice until centrifuged and the plasma collected. Plasma samples were then frozen until assayed.
# Plasma and urine samples were assayed by high-pressure liquid chromatography (HPLC) as reported by Gisclon, in the article mentioned above.
# Plasma samples were prepared for assay by mixing 0.5 ml of plasma with 0.5 ml of acetonitrile containing β-hydroxyethyltheophylline (40 mcg/ml) as internal standard, and vortexed 15 seconds. The plasma sample with its protein precipitate was then centrifuged for 15 minutes at 2800 rpm and 5-40 μl injected into the HPLC.
# FIGS. 5 and 6 show dyphylline plasma concentration vs. time curves for the subjects. Solid circles are the data points which were obtained by duplicate analysis of each sample by different analysts and the solid line represents the predicted values obtained after fitting the data with an Autoan computer package which uses CSTRIP and NONLIN (John G. Wagner, Fundamentals of Clinical Pharmacokinetics, Drug Intelligence Publications,Inc., Hamilton, Ill., 1975). This program determined that the data from time zero to 480 min. (8 hr) for subject one and 420 min. (7 hr) for subject two were compatible with a two compartment open model with zero order infusion for 20 minutes and first order elimination from the central compartment only. The fit to the data was quite good with r^2 =0.996 for subject one and 0.997 for subject two. The average percent deviation for the predicted lines from the data points was 7.7 percent and the estimated concentrations averaged 98.9 percent of the observed concentrations.
# [11] = cited from earlier work; remark: listed apart in the source
# [12] = cited from earlier work; remark: listed apart in the source
# [13] = intravenous, per day per 70 kg person, Zuidema
structure (smiles),measurement,setting,value
"Cn1c(=O)c2c(ncn2CC(O)CO)n(C)c1=O (stereo not shown) [dyphylline, dihydroxypropyl theophylline]",average volume of distribution,[1]; 25 mg/kg,1.01 L/kg
same,toxicity at 30 to 50 mcg/ml,"[1]; rabbit, in vivo",not toxic
same,Cmax,"[2]; first value, presumably first horse",46 µg/mL
same,Cmax,"[2]; second value, presumably second horse",88 µg/mL
same,water solubility,[3],high water solubility
same,drug related toxicities,"[4]; human, in vivo",No subjects reported any drug related toxicities
same,Cmax,"[4]; human, plasma, read-out: Maximum plasma concentration, average",30100 ng/mL
same,Cmax,"[4]; human, plasma, read-out: Maximum plasma concentration, range",18400 to 46800 ng/mL
same,Vd,"[4]; human, plasma, 1000 mg IV, twelve volunteers, standard deviation 0.08, read-out: average total volume of distribution, IV",0.78 L/kg
same,difference between predose and peak drug effects on blood pressure and heart rate,[4]; α=0.05 level,not statistically significant
same,"heart rate, individual drug treatment",[5],76 bpm
same,lowest therapeutic response toxic level in steady state,"[6]; blood, calculated by Zuidema from data of Svedmyr",90 µg/mL
same,calculated probable dosage to produce 40 mcg/ml in blood,[6]; [13],13.7 gm
same,calculated probable dosage to produce 90 mcg/ml in blood,[6]; [13],30.8 gm
same,Vd,"[7]; 10 mg/kg, 10 mg/kg alcoholic solution with glycerol-guaiacolate solution",0.77 L/kg
same,Vd,"[7]; 10 mg/kg, 10 mg/kg alcoholic solution",0.98 L/kg
same,Vd,"[7]; 10 mg/kg, 10 mg/kg aqueous",0.93 L/kg
same,Vd/F,"[7]; im, 5 mg/kg, 5 mg/kg intramuscular",0.58 L/kg
same,Vd/F,"[7]; im, 10 mg/kg, 10 mg/kg intramuscular",0.8 L/kg
same,Vd/F,"[7]; po, 5 mg/kg, 5 mg/kg tablet",0.58 L/kg
same,Vd/F,"[7]; po, 10 mg/kg, 10 mg/kg tablet",0.72 L/kg
same,penetration into cerebral spinal fluid,[8],penetrate into cerebral spinal fluid
same,half-time of clearance from the central compartment,[9],four to nine
same,adverse side effects,"[10]; 1000 mg over 20 min, two subjects",No adverse side effects were observed or reported
same,"Blood pressure, diastolic, Subject Two","[10]; 10 M, 15 M, 20 M (end), 30 M, 40 M, 60 M, 90 M, predose 125/80",80 mm Hg and 85 mm Hg and 75 mm Hg
same,K12,"[10]; Subject 1, 1000 mg over 20 min",1.94 h⁻¹
same,K21,"[10]; Subject 1, 1000 mg over 20 min",2.50 h⁻¹
same,α,"[10]; Subject 1, 1000 mg over 20 min",4.73 h⁻¹
same,"V2, volume of peripheral compartment",[10]; Subject 1,30.28 L
same,"Css, steady state",[10]; Subject 1,142.56 µg/mL
same,K12,"[10]; Subject 2, 1000 mg over 20 min",4.02 h⁻¹
same,K21,"[10]; Subject 2, 1000 mg over 20 min",4.39 h⁻¹
same,α,"[10]; Subject 2, 1000 mg over 20 min",8.83 h⁻¹
same,"V2, volume of peripheral compartment",[10]; Subject 2,25.45 L
same,"Css, steady state",[10]; Subject 2,142.13 µg/mL
same,blood pressure and pulse rate,[10]; during the study,essentially unchanged
same,half-life,[10]; Subject 1,127 min
same,k el,"[10]; Subject 1, 1000 mg over 20 min, read-out: Ke1 (converted)",0.000172 s⁻¹
same,k el,"[10]; Subject 1, 1000 mg over 20 min, read-out: β (converted)",9.17e-05 s⁻¹
same,Vd,"[10]; Subject 1, read-out: V1",33.9 L
same,Vd,"[10]; Subject 1, read-out: V3 (footnote: Vd, total volume of distribution)",64.2 L
same,half-life,[10]; Subject 2,99.6 min
same,k el,"[10]; Subject 2, 1000 mg over 20 min, read-out: Ke1 (converted)",0.000233 s⁻¹
same,k el,"[10]; Subject 2, 1000 mg over 20 min, read-out: β (converted)",0.000117 s⁻¹
same,Vd,"[10]; Subject 2, read-out: V1",25.1 L
same,Vd,"[10]; Subject 2, read-out: V3 (footnote: Vd, total volume of distribution)",50.6 L
same,Vd,"[10]; two subjects, range, read-out: volume of the central compartment per kg",0.35 to 0.47 L/kg
same,Vd,"[10]; two subjects, read-out: total volume of distribution, average",~0.8 L/kg
same,Vd,"[10]; two subjects, read-out: volume of the central compartment",25 to 34 L
same,Vd,"[10]; two subjects, read-out: volume of the central compartment, average",~0.41 L/kg
same,pharmacokinetics at high dose,[11]; Poynor,may produce nonlinear pharmacokinetics
same,concentration not toxic in dogs,[11]; dogs,100 µg/mL
same,adverse effect,"[12]; 400 mg intravenous, about 48 mcg/ml, Zuidema 1981",no adverse effect
same,plasma concentration,"[12]; 400 mg intravenous, very short time, Zuidema 1981",about 48 mcg/ml
same,protein binding,[12]; Gisclon et al.,may bind nonlinearly to protein
same,intravenous dyphylline accounted for in the urine,[12]; Lawyer,forty-four
same,peak plasma concentration,"[12]; intravenous over ten minutes, one patient, Lawyer",17.4 µg/mL
same,conversion to theophylline in the body,[12]; literature,not converted to theophylline in the body
same,tissue distribution,[12]; literature,"penetrate the central nervous system, to infiltrate heart tissue and to distribute to lung tissue"
same,initial distribution volume,"[12]; person, 73 kg, Lawyer",26.2 L
same,total or steady state volume of distribution,"[12]; person, 73 kg, Lawyer",32.1 L
